Assay results as given in ChEMBL document CHEMBL1136246, “Structure activity studies of a novel cytotoxic benzodiazepine” (Bioorg Med Chem Lett, 2003).

Legend:
[1] = system: Ramos; test: Inhibition of Ramos B cells death in the presence of 20 uM methylating phenol (Compound 20); assay type: functional, Homo sapiens
[2] = system: Ramos; test: Inhibition of Ramos B cells death in the presence of FK506 (1 uM); assay type: functional, Homo sapiens
[3] = system: Ramos; test: Lymphotoxic activity against immortalized Ramos B cells in culture; assay type: functional, cell-based; details: Homo sapiens

CN1C(=O)C(Cc2cccc(-c3ccccc3)c2)N=C(c2ccc(O)cc2)c2cc(Cl)ccc21 (stereo unspecified) showed an Inhibition [1] of 81%, an Inhibition [2] of 77% and an EC50 [3] of 4 µM.

Work on Cc1ccc(C)c(CC2N=C(c3ccc(O)cc3)c3cc(Cl)ccc3N(C)C2=O)c1 (stereo unspecified) yielded an Inhibition [1] of 23%, an Inhibition [2] of 80% and an EC50 [3] of 7 µM.

Compound CN1C(=O)C(Cc2ccc(-c3ccccc3)cc2)N=C(c2ccc(O)cc2)c2cc(Cl)ccc21 (stereo unspecified) has an Inhibition [1] of 69%, an Inhibition [2] of 74% and an EC50 [3] of 7 µM.

In the case of CN1C(=O)C(Cc2cccc3ccccc23)N=C(c2ccc(O)cc2)c2cc(Cl)ccc21 (stereo unspecified), the Inhibition [1] is reported as 67%, the Inhibition [2] is reported as 72% and the EC50 [3] is reported as 5 µM.

CN1C(=O)C(Cc2ccc(F)c(F)c2)N=C(c2ccc(O)cc2)c2cc(Cl)ccc21 (stereo unspecified) showed an Inhibition [1] of 0%, an Inhibition [2] of 59% and an EC50 [3] of 10 µM.

CN1C(=O)C(Cc2ccc3ccccc3c2)N=C(c2cccc(O)c2)c2cc(Cl)ccc21 (stereo unspecified) was tested, and the Inhibition [1] was 0%, the Inhibition [2] was 70% and the EC50 [3] was 6 µM.

Work on CN1C(=O)C(Cc2cc3ccccc3cn2)N=C(c2ccc(O)cc2)c2cc(Cl)ccc21 (stereo unspecified) yielded an Inhibition [1] of 0%, an Inhibition [2] of 42% and an EC50 [3] of 10 µM.

CN1C(=O)C(Cc2ccc3ncccc3c2)N=C(c2ccc(O)cc2)c2cc(Cl)ccc21 (stereo unspecified) showed an Inhibition [1] of 0%, an Inhibition [2] of 20% and an EC50 [3] of 13 µM.

In the case of CN1C(=O)C(Cc2ccc(OC(F)(F)F)cc2)N=C(c2ccc(O)cc2)c2cc(Cl)ccc21 (stereo unspecified), the Inhibition [1] is reported as 0%, the Inhibition [2] is reported as 17% and the EC50 [3] is reported as 30 µM.

For CN1C(=O)C(Cc2cccc(O)c2)N=C(c2ccc(O)cc2)c2cc(Cl)ccc21 (stereo unspecified), the Inhibition [1] was 20%, the Inhibition [2] was 14% and the EC50 [3] was 22 µM.

Work on CN1C(=O)C(Cc2ccccc2)N=C(c2ccc(O)cc2)c2cc(Cl)ccc21 (stereo unspecified) yielded an Inhibition [1] of 0%, an Inhibition [2] of 4% and an EC50 [3] of 12 µM.

With CN1C(=O)C(Cc2cnc3ccccc3c2)N=C(c2ccc(O)cc2)c2cc(Cl)ccc21 (stereo unspecified) the Inhibition [1] was 4%, the Inhibition [2] was 39% and the EC50 [3] was 11 µM.

CN1C(=O)C(Cc2ccc(C(C)(C)C)cc2)N=C(c2ccc(O)cc2)c2cc(Cl)ccc21 (stereo unspecified) was tested, and the Inhibition [1] was 55%, the Inhibition [2] was 91% and the EC50 [3] was 3 µM.

For COc1ccc(C2=NC(Cc3ccc4ccccc4c3)C(=O)N(C)c3ccc(Cl)cc32)cc1 (stereo unspecified), the EC50 [3] was over 80 µM.

CN1C(=O)C(Cc2ccc3ccccc3c2)N=C(c2ccc(Cl)cc2)c2cc(Cl)ccc21 (stereo unspecified) was tested, and the EC50 [3] was over 80 µM.

Cc1cc(C2=NC(Cc3ccc4ccccc4c3)C(=O)N(C)c3ccc(Cl)cc32)ccc1O (stereo unspecified) was tested, and the Inhibition [1] was 87%, the Inhibition [2] was 78% and the EC50 [3] was 3 µM.

With CN1C(=O)C(Cc2ccc3ccccc3c2)N=C(c2ccc(N=[N+]=[N-])cc2)c2cc(Cl)ccc21 (stereo unspecified) the EC50 [3] was over 80 µM.

Cc1ccc(CC2N=C(c3ccc(O)cc3)c3cc(Cl)ccc3N(C)C2=O)cc1C (stereo unspecified) gave an Inhibition [1] of 29%, an Inhibition [2] of 78% and an EC50 [3] of 7 µM.

With CN1C(=O)CN=C(c2ccccc2)c2cc(Cl)ccc21 [DIAZEPAM] the EC50 [3] was over 80 µM.

For CCC(C)N(C)C(=O)c1cc2ccccc2c(-c2ccccc2Cl)n1 (stereo unspecified) [PK-11195], the EC50 [3] was over 80 µM.

With CN1C(=O)CN=C(c2ccc(Cl)cc2)c2cc(Cl)ccc21 [RO-54864] the EC50 [3] was over 80 µM.
